Laboratory results published in ChEMBL document CHEMBL3044671, “Synthesis and in vitro antimicrobial and anti-tubercular evaluation of some quinoline-based azitidinone and thiazolidinone analogues” (2013).
≈ marks a conversion by molar mass, not a printed value.

Assays:
Type in all cases: functional
Escherichia coli [1] = assay: Antimicrobial activity against Escherichia coli MTCC 739 assessed as growth inhibition by agar streak dilution method
Staphylococcus aureus [2] = assay: Antimicrobial activity against Staphylococcus aureus MTCC 96 assessed as diameter of growth zone inhibition by agar streak dilution method
Bacillus subtilis [3] = assay: Antimicrobial activity against Bacillus subtilis MTCC 430 assessed as diameter of growth zone inhibition by agar streak dilution method
Staphylococcus aureus [4] = assay: Antimicrobial activity against Staphylococcus aureus MTCC 96 assessed as growth inhibition by agar streak dilution method
Pseudomonas aeruginosa [5] = assay: Antimicrobial activity against Pseudomonas aeruginosa MTCC 741 assessed as growth inhibition by agar streak dilution method
Pseudomonas aeruginosa [6] = assay: Antimicrobial activity against Pseudomonas aeruginosa MTCC 741 assessed as diameter of growth zone inhibition by agar streak dilution method
Bacillus subtilis [7] = assay: Antimicrobial activity against Bacillus subtilis MTCC 430 assessed as growth inhibition by agar streak dilution method
Escherichia coli [8] = assay: Antimicrobial activity against Escherichia coli MTCC 739 assessed as diameter of growth zone inhibition by agar streak dilution method
Aspergillus niger [9] = assay: Antimicrobial activity against Aspergillus niger MTCC 282 assessed as growth inhibition by agar streak dilution method
[10] = test system: Mycobacterium tuberculosis; assay: Antitubercular activity against Mycobacterium tuberculosis H37Rv assessed as growth inhibition by BACTEC MGIT method
Aspergillus niger [11] = assay: Antimicrobial activity against Aspergillus niger MTCC 282 assessed as diameter of growth zone inhibition by agar streak dilution method
Candida albicans [12] = assay: Antimicrobial activity against Candida albicans MTCC 183 assessed as diameter of growth zone inhibition by agar streak dilution method
Candida albicans [13] = assay: Antimicrobial activity against Candida albicans MTCC 183 assessed as growth inhibition by agar streak dilution method

| Compound | MIC (Escherichia coli [1]) [µg/mL] | diameter of the inhibition zone (DIZ) (Staphylococcus aureus [2]) [mm] | diameter of the inhibition zone (DIZ) (Bacillus subtilis [3]) [mm] | MIC (Staphylococcus aureus [4]) [µg/mL] | MIC (Pseudomonas aeruginosa [5]) [µg/mL] | diameter of the inhibition zone (DIZ) (Pseudomonas aeruginosa [6]) [mm] | MIC (Bacillus subtilis [7]) [µg/mL] | diameter of the inhibition zone (DIZ) (Escherichia coli [8]) [mm] | MIC (Aspergillus niger [9]) [µg/mL] | MIC [10] [µg/mL] | diameter of the inhibition zone (DIZ) (Aspergillus niger [11]) [mm] | diameter of the inhibition zone (DIZ) (Candida albicans [12]) [mm] | MIC (Candida albicans [13]) [µg/mL] |
| --- | --- | --- | --- | --- | --- | --- | --- | --- | --- | --- | --- | --- | --- |
| O=C(O)c1cn(C2CC2)c2cc(N3CCNCC3)c(F)cc2c1=O [CIPROFLOXACIN] | ≤ 1 | 30 | 31 | ≤ 1 | ≤ 1 | 33 | ≤ 1 | 32 |  |  |  |  |  |
| Cc1ccccc1N1C(=O)CSC1c1cc2ccccc2nc1S (stereo not given) | 100 (≈ 284 µM) | 20 | 15 | 100 (≈ 284 µM) | 1000 (≈ 2840 µM) | 14 | 100 (≈ 284 µM) | 15 | 100 (≈ 284 µM) | 500 (≈ 1420 µM) | 16 | 17 | 100 (≈ 284 µM) |
| O=C1CSC(c2cc3ccccc3nc2S)N1c1ccc(Cl)cc1 (stereo not given) | 25 (≈ 67 µM) | 25 | 25 | 6.25 (≈ 16.8 µM) | 25 (≈ 67 µM) | 24 | 3.12 (≈ 8.37 µM) | 23 | 12.5 (≈ 33.5 µM) | 62.5 (≈ 168 µM) | 25 | 24 | 100 (≈ 268 µM) |
| O=C1CSC(c2cc3ccccc3nc2S)N1c1ccc([N+](=O)[O-])cc1 (stereo not given) | 6.25 (≈ 16.3 µM) | 23 | 23 | 12.5 (≈ 32.6 µM) | 12.5 (≈ 32.6 µM) | 24 | 50 (≈ 130 µM) | 23 | 25 (≈ 65.2 µM) | 62.5 (≈ 163 µM) | 25 | 18 | 100 (≈ 261 µM) |
| O=C1C(Cl)C(c2cc3ccccc3nc2S)N1c1cccc(Cl)c1 (stereo not given) | 62.5 (≈ 167 µM) | 24 | 25 | 12.5 (≈ 33.3 µM) | 62.5 (≈ 167 µM) | 23 | 12.5 (≈ 33.3 µM) | 22 | 50 (≈ 133 µM) | 125 (≈ 333 µM) | 25 | 21 | 62.5 (≈ 167 µM) |
| O=C1C(Cl)C(c2cc3ccccc3nc2S)N1c1ccccc1Cl (stereo not given) | 50 (≈ 133 µM) | 24 | 25 | 6.25 (≈ 16.7 µM) | 50 (≈ 133 µM) | 22 | 12.5 (≈ 33.3 µM) | 23 | 62.5 (≈ 167 µM) | 125 (≈ 333 µM) | 20 | 19 | 100 (≈ 266 µM) |
| O=C1CSC(c2cc3ccccc3nc2S)N1c1ccc(F)cc1 (stereo not given) | 12.5 (≈ 35.1 µM) | 25 | 25 | 3.12 (≈ 8.75 µM) | 50 (≈ 140 µM) | 24 | 6.25 (≈ 17.5 µM) | 24 | 12.5 (≈ 35.1 µM) | 62.5 (≈ 175 µM) | 26 | 26 | 25 (≈ 70.1 µM) |
| O=C1C(Cl)C(c2cc3ccccc3nc2S)N1c1cccc([N+](=O)[O-])c1 (stereo not given) | 50 (≈ 130 µM) | 22 | 22 | 50 (≈ 130 µM) | 50 (≈ 130 µM) | 23 | 50 (≈ 130 µM) | 22 | 12.5 (≈ 32.4 µM) | 250 (≈ 648 µM) | 24 | 20 | 100 (≈ 259 µM) |
| O=C1C(Cl)C(c2cc3ccccc3nc2S)N1c1ccc(Cl)cc1 (stereo not given) | 25 (≈ 66.6 µM) | 26 | 25 | 6.25 (≈ 16.7 µM) | 25 (≈ 66.6 µM) | 24 | 6.25 (≈ 16.7 µM) | 24 | 25 (≈ 66.6 µM) | 62.5 (≈ 167 µM) | 25 | 22 | 100 (≈ 266 µM) |
| Cc1cccc(N2C(=O)C(Cl)C2c2cc3ccccc3nc2S)c1 (stereo not given) | 100 (≈ 282 µM) | 19 | 18 | 100 (≈ 282 µM) | 100 (≈ 282 µM) | <10 | 100 (≈ 282 µM) | 17 | 100 (≈ 282 µM) | 500 (≈ 1410 µM) | 19 | 18 | 100 (≈ 282 µM) |
| Cc1cnc(N2C(=O)CSC2c2cc3ccccc3nc2S)s1 (stereo not given) | 12.5 (≈ 34.8 µM) | 24 | 23 | 12.5 (≈ 34.8 µM) | 62.5 (≈ 174 µM) | 23 | 25 (≈ 69.5 µM) | 24 | 62.5 (≈ 174 µM) | 62.5 (≈ 174 µM) | 23 | 24 | 62.5 (≈ 174 µM) |
| Cc1cnc(N2C(=O)C(Cl)C2c2cc3ccccc3nc2S)s1 (stereo not given) | 12.5 (≈ 34.5 µM) | 24 | 22 | 25 (≈ 69.1 µM) | 100 (≈ 276 µM) | 22 | 6.25 (≈ 17.3 µM) | 24 | 50 (≈ 138 µM) | 125 (≈ 345 µM) | 22 | 24 | 62.5 (≈ 173 µM) |
| O=C1CSC(c2cc3ccccc3nc2S)N1c1cccc([N+](=O)[O-])c1 (stereo not given) | 6.25 (≈ 16.3 µM) | 22 | 22 | 50 (≈ 130 µM) | 25 (≈ 65.2 µM) | 23 | 50 (≈ 130 µM) | 24 | 25 (≈ 65.2 µM) | 125 (≈ 326 µM) | 23 | 20 | 100 (≈ 261 µM) |
| O=C1CSC(c2cc3ccccc3nc2S)N1c1ccccc1Cl (stereo not given) | 12.5 (≈ 33.5 µM) | 23 | 25 | 6.25 (≈ 16.8 µM) | 62.5 (≈ 168 µM) | 23 | 12.5 (≈ 33.5 µM) | 23 | 62.5 (≈ 168 µM) | 125 (≈ 335 µM) | 21 | 22 | 100 (≈ 268 µM) |
| Cc1ccccc1N1C(=O)C(Cl)C1c1cc2ccccc2nc1S (stereo not given) | 100 (≈ 282 µM) | 21 | <10 | 62.5 (≈ 176 µM) | 100 (≈ 282 µM) | 19 | 100 (≈ 282 µM) | <10 | 100 (≈ 282 µM) | 500 (≈ 1410 µM) | 18 | 20 | 100 (≈ 282 µM) |
| NNC(=O)c1ccncc1 [ISONIAZID] |  |  |  |  |  |  |  |  |  | 0.2 (≈ 1.46 µM) |  |  |  |
| O=C1CSC(c2cc3ccccc3nc2S)N1c1ccccc1 (stereo not given) | 100 (≈ 295 µM) | 19 | 17 | 100 (≈ 295 µM) | 100 (≈ 295 µM) | 17 | 100 (≈ 295 µM) | 16 | 100 (≈ 295 µM) | 1000 (≈ 2950 µM) | 16 | 15 | 100 (≈ 295 µM) |
| Cc1cccc(N2C(=O)CSC2c2cc3ccccc3nc2S)c1 (stereo not given) | 100 (≈ 284 µM) | 21 | 19 | 62.5 (≈ 177 µM) | 100 (≈ 284 µM) | 18 | 100 (≈ 284 µM) | 19 | 100 (≈ 284 µM) | 500 (≈ 1420 µM) | 20 | 19 | 100 (≈ 284 µM) |
| Cc1ccc(N2C(=O)CSC2c2cc3ccccc3nc2S)cc1 (stereo not given) | 100 (≈ 284 µM) | 20 | 20 | 100 (≈ 284 µM) | 100 (≈ 284 µM) | 19 | 100 (≈ 284 µM) | 19 | 100 (≈ 284 µM) | 250 (≈ 709 µM) | 17 | 15 | 100 (≈ 284 µM) |
| CO[C@H]1/C=C/O[C@@]2(C)Oc3c(C)c(O)c4c(O)c(c(/C=N/N5CCN(C)CC5)c(O)c4c3C2=O)NC(=O)/C(C)=C\C=C\[C@H](C)[C@H](O)[C@@H](C)[C@@H](O)[C@@H](C)[C@H](OC(C)=O)[C@@H]1C [RIFAMPIN] |  |  |  |  |  |  |  |  |  | 40 (≈ 48.6 µM) |  |  |  |
| CC(=O)N1CCN(c2ccc(OCC3COC(Cn4ccnc4)(c4ccc(Cl)cc4Cl)O3)cc2)CC1 (stereo not given) [KETOCONAZOLE] |  |  |  |  |  |  |  |  | ≤ 3 |  | 30 | 33 | ≤ 1 |
